How the values were obtained:
[1] = Liquid; for viscosity / mass density: 298.15 K, 101.33 kPa; for viscosity: Capillary tube (Ostwald / Ubbelohde) method; for mass density: Pycnometric method; for vapor or sublimation pressure: Ebulliometric method (Recirculating still)
[2] = refractive index (Na D-line) (dimensionless); details: 298.15 K; 101.33 kPa; Liquid; Standard Abbe refractometry

CCC(C)OCOC (stereo unspecified) [2-(methoxymethoxy)butane]
Details | mass density [kg/m3] | refractive index | viscosity [mPa·s]
[1] | 836.4 | – | 0.561
[2] | – | 1.3833 | –

[1]
Details | vapor or sublimation pressure [kPa]
346.4 K | 31.5
349.99 K | 36.4
356.07 K | 44.4
359.47 K | 49.6
363.89 K | 57.2
367.43 K | 65.1
372.48 K | 75.7
376.45 K | 85.1
379.35 K | 92
382.8 K | 101.3
385.21 K | 109.1
388.5 K | 119
391.24 K | 127.9

CO [methanol]
Details | vapor or sublimation pressure [kPa]
[1], 337.83 K | 101.3

CCCCO [butan-1-ol]
Details | mass density [kg/m3] | refractive index | viscosity [mPa·s]
[1] | 806 | – | 2.534
[2] | – | 1.3972 | –

Details | vapor or sublimation pressure [kPa]
[1], 390.9 K | 101.3

CCC(C)O (stereo unspecified) [butan-2-ol]
Details | mass density [kg/m3] | refractive index | viscosity [mPa·s]
[1] | 802.6 | – | 3.099
[2] | – | 1.395 | –

[1]
Details | vapor or sublimation pressure [kPa]
344.47 K | 31.5
351.27 K | 42.8
356.45 K | 53.5
363.21 K | 70.7
366.85 K | 81.2
369.83 K | 91.3
372.7 K | 101.3

Reference: the NIST ThermoML archive (doi:10.1021/acs.jced.8b00499)
